{"source": "patent US11389505B2", "about": "“Method of managing joint pain” (ORTHOTROPHIX, INC., priority 2017, dated 2022)", "tested_on": "subjects with osteoarthritis of the knees", "assay": "Clinical study of TPX-100, safety and tolerability of intra-articular administration", "assay_type": "in vivo, human", "note": "Ends that are not written are not given here."}
{"substance": "TDLQERGDNDISPFSGDGQPFKD-NH2 [TPX-100]", "values": [{"measurement": "Dose-limiting toxicities", "setting": "Part A, 20, 50, 100 and 200 mg per intra-articular injection, 4 weekly injections", "value": "no dose-limiting toxicities"}, {"measurement": "Severe adverse events related to the drug treatment", "setting": "throughout the study period", "value": "no severe adverse events likely or possibly related to the drug treatment"}, {"measurement": "Severity of treatment-related adverse events", "setting": "throughout the study period", "value": "mild or moderate, transient"}, {"measurement": "Safety and tolerability of treatments", "setting": "throughout the study period (12 months)", "value": "safe and well tolerated"}]}
